Assays:
[1] = target: T1, AtPMT1 (Arabidopsis thaliana, UniProt Q9XIH7); experiment: competition of […]-sorbitol uptake in transgenic yeast; type: cell-based; settings: pH 5.0
T1 sequence (Q9XIH7 1-511): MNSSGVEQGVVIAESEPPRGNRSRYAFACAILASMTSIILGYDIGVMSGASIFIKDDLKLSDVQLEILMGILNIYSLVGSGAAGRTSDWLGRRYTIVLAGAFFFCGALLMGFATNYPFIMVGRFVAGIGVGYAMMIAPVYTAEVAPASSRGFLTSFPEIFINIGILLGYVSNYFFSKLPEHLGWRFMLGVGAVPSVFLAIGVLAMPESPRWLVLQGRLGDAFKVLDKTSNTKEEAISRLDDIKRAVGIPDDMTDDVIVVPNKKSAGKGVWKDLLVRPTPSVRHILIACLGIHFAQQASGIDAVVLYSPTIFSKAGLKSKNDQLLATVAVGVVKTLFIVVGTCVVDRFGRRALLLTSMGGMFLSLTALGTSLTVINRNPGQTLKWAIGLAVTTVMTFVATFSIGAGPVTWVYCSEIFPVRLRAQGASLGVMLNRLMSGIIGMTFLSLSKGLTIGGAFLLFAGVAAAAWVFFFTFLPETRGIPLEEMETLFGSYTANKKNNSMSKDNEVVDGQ

[2] = target: T2, AtPMT2 (Arabidopsis thaliana, UniProt Q9XIH6); experiment: as above; type: cell-based; settings: pH 5.0
T2 sequence (Q9XIH6 1-511): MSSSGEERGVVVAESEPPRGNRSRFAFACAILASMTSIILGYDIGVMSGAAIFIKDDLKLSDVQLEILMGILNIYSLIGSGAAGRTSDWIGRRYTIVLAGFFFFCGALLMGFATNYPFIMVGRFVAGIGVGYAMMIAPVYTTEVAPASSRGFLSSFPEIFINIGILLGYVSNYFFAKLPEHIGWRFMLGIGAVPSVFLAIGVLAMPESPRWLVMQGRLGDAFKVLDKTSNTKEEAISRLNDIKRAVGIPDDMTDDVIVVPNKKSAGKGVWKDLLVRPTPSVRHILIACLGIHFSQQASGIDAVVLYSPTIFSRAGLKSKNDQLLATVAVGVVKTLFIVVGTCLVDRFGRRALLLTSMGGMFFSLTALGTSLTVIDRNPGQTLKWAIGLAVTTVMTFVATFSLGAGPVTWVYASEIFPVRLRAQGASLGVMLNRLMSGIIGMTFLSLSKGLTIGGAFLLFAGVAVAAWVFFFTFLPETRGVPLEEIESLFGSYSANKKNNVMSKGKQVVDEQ

[3] = substrate: OC[C@@H](O)[C@H](O)[C@@H](O)CO; experiment: cells, lysate or membranes; settings: 50 mM sodium phosphate pH 5.0, H+ symport
[4] = substrate: OC[C@@H](O)[C@@H](O)[C@H](O)[C@@H](O)CO; experiment: cells, lysate or membranes; settings: 50 mM sodium phosphate pH 5.0, H+ symport

Molecule: OC[C@@H](O)[C@@H](O)CO [erythritol]
- uptake of 0.1 mM 14C-sorbitol with 10 mM competitor [1]: In both strains, uptake of sorbitol was strongly reduced in the presence of xylitol
- uptake of 0.1 mM 14C-sorbitol with 10 mM competitor ([2]; 10 mM competitor): In both strains, uptake of sorbitol was strongly reduced in the presence of xylitol

Molecule: OC[C@@H](O)[C@@H](O)[C@H](O)[C@@H](O)CO [sorbitol]
- uptake of 0.1 mM 14C-sorbitol with 10 mM competitor ([2]; 10 mM unlabelled sorbitol): sorbitol was transported by both cell lines

B1: AtPMT2 (Arabidopsis thaliana) (protein)
chain: MSSSGEERGVVVAESEPPRGNRSRFAFACAILASMTSIILGYDIGVMSGAAIFIKDDLKLSDVQLEILMGILNIYSLIGSGAAGRTSDWIGRRYTIVLAGFFFFCGALLMGFATNYPFIMVGRFVAGIGVGYAMMIAPVYTTEVAPASSRGFLSSFPEIFINIGILLGYVSNYFFAKLPEHIGWRFMLGIGAVPSVFLAIGVLAMPESPRWLVMQGRLGDAFKVLDKTSNTKEEAISRLNDIKRAVGIPDDMTDDVIVVPNKKSAGKGVWKDLLVRPTPSVRHILIACLGIHFSQQASGIDAVVLYSPTIFSRAGLKSKNDQLLATVAVGVVKTLFIVVGTCLVDRFGRRALLLTSMGGMFFSLTALGTSLTVIDRNPGQTLKWAIGLAVTTVMTFVATFSLGAGPVTWVYASEIFPVRLRAQGASLGVMLNRLMSGIIGMTFLSLSKGLTIGGAFLLFAGVAVAAWVFFFTFLPETRGVPLEEIESLFGSYSANKKNNVMSKGKQVVDEQ
- Km [3]: 180 ± 10 µM

B2: AtPMT1 (Arabidopsis thaliana) (protein)
chain: MNSSGVEQGVVIAESEPPRGNRSRYAFACAILASMTSIILGYDIGVMSGASIFIKDDLKLSDVQLEILMGILNIYSLVGSGAAGRTSDWLGRRYTIVLAGAFFFCGALLMGFATNYPFIMVGRFVAGIGVGYAMMIAPVYTAEVAPASSRGFLTSFPEIFINIGILLGYVSNYFFSKLPEHLGWRFMLGVGAVPSVFLAIGVLAMPESPRWLVLQGRLGDAFKVLDKTSNTKEEAISRLDDIKRAVGIPDDMTDDVIVVPNKKSAGKGVWKDLLVRPTPSVRHILIACLGIHFAQQASGIDAVVLYSPTIFSKAGLKSKNDQLLATVAVGVVKTLFIVVGTCVVDRFGRRALLLTSMGGMFLSLTALGTSLTVINRNPGQTLKWAIGLAVTTVMTFVATFSIGAGPVTWVYCSEIFPVRLRAQGASLGVMLNRLMSGIIGMTFLSLSKGLTIGGAFLLFAGVAAAAWVFFFTFLPETRGIPLEEMETLFGSYTANKKNNSMSKDNEVVDGQ
- Km [3]: 140 ± 20 µM
- Km [4]: 770 ± 120 µM

— PMC2803217 (Journal of Experimental Botany, 2009)
